Assay results from patent US7304090B2, “Inhibition of the cystic fibrosis transmembrane conductance regulator chloride channel” (The University of Bristol, priority 2000, dated 2007).

What was measured:
wild-type human CFTR = target: T1, wild-type human CFTR (Homo sapiens, UniProt P13569); assay: CFTR Cl− channels recorded in excised inside-out membrane patches from C127 cells (patch-clamp); assay type: biochemical; conditions: for effect on CFTR Cl− currents: PKA and ATP present
T1 construct: expressed in transfected cells
T1 sequence (P13569 whole entry): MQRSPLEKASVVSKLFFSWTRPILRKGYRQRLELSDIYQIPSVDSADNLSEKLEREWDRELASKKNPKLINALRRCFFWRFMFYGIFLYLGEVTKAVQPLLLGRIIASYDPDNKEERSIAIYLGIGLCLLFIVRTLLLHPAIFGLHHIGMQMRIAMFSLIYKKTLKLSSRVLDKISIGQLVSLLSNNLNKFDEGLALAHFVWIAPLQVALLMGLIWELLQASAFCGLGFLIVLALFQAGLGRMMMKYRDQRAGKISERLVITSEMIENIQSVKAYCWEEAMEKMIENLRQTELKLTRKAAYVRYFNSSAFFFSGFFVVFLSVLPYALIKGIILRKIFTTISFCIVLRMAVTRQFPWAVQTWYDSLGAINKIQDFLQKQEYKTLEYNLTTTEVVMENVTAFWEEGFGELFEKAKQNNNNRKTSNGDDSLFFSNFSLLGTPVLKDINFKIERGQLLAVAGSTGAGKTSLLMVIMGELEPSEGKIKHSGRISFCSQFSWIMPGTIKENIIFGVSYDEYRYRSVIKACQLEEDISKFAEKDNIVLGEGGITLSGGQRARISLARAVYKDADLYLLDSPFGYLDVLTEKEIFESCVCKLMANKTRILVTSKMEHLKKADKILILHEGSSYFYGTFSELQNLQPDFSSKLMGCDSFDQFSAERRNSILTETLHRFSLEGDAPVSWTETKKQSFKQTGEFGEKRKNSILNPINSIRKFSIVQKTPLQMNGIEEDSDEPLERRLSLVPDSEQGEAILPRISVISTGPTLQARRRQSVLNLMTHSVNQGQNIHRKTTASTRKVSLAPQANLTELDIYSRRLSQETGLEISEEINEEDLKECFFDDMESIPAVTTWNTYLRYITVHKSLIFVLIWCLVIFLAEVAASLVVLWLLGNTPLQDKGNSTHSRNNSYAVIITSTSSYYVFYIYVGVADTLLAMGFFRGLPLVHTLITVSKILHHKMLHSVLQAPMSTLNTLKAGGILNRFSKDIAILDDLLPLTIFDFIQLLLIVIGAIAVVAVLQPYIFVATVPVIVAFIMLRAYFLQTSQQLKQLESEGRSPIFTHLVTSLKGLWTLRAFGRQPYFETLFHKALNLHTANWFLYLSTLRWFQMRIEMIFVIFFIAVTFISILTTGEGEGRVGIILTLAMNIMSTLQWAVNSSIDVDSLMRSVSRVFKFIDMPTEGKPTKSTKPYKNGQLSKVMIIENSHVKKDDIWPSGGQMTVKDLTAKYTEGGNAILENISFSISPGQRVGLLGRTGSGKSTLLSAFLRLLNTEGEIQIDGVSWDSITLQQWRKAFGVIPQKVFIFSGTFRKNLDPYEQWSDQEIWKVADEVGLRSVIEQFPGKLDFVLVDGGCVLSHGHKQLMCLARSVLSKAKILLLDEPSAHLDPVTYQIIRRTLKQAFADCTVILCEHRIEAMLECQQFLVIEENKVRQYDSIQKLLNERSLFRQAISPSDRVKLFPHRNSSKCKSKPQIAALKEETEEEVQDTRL
Description: For electrophysiological experiments, we used mouse mammary epithelial cells (C127 cells) stably expressing wild-type human CFTR (12). C127 cells expressing wild-type CFTR were cultured as previously described (10). Cells were seeded onto glass coverslips and used within 48 h.
The established sign convention was used throughout; currents produced by positive charge moving from intra- to extracellular solutions (anions moving in the opposite direction) are shown as positive currents.
[…] […] All experiments were conducted at 37° C.
PKA was maintained in the intracellular solution for the duration of experiments. Unless otherwise stated, voltage was −50 mV.
In time course studies, each point is the average current for a 4 s period with data points collected continuously; no data were collected while solutions were changed. Average current (I) for a specific intervention was determined as the average of all the data points collected during the intervention. […] Mean data were fitted to a linear form of equation (1) using linear least-squares regression to yield Ki and n values.
To measure single-channel current amplitude (i), Gaussian distributions were fitted to current amplitude histograms. For open probability (Po) and kinetic analyses, lists of open and closed times were created using a half-amplitude crossing criterion for event detection. Transitions <1 ms in duration were excluded from the analyses. Po was calculated using the equation: Po=(T1+T2+ . . . +TN)/(NTtot), (2) where N is the number of channels; Ttot is the total time analysed, and T1 is the time that one or more channels are open, T2 is the time two or more channels are open and so on. Only membrane patches that contained a single active channel were used for single-channel kinetic analyses.
To investigate whether inhibition of CFTR by fluorescein derivatives was voltage dependent, we used voltage ramp protocols. Macroscopic current-voltage (I-V) relationships were obtained in the absence and presence of fluorescein derivatives by averaging currents generated by 15-30 ramps of voltage each of 2 s duration; holding voltage was −50 mV. Basal currents recorded in the absence of PKA and ATP were subtracted from those recorded in the absence and presence of fluorescein derivatives to determine the effect of these agents on CFTR Cl^− currents.

[1] = test system: Type I Madin-Darby canine kidney (MDCK) cells; assay: Cyst growth of MDCK cells in collagen gels with cAMP agonists; assay type: cell-based; conditions: 40 μM; days 12 to 21
Description: (§1) For cyst growth and cell proliferation experiments, we used Type I Madin-Darby canine kidney (MDCK) cells. We chose Type I MDCK cells because they form cysts when grown in collagen gels in the presence of cAMP agonists (26) and because they express the CFTR Cl^− channel (27). MDCK cells were cultured in MDCK media (a 1:1 mixture of Dulbecco's Modified Eagle Medium (DMEM) and Ham's F-12 nutrient medium supplemented with 100 U ml^−1 penicillin, and 100 μg ml^−1 streptomycin and either 10% fetal bovine serum (FBS; cyst growth) or 5% FBS and 1% insulin-transferrin-selenium-X (ITS-X) supplement (cell proliferation); all from Life Technologies Ltd, Paisley, UK) at 37° C. in a humidified atmosphere of 5% CO2.
To grow cysts, MDCK cells were cultured in collagen gels using a modification of the method of Grantham et al. (26). Cells were trypsinized with 0.25% (wt/vol) trypsin for 30 minutes at 37° C., diluted with MDCK media containing 10% FBS to form a suspension of between 1-3×10^4 cells ml^−1, and aliquoted into individual wells of a 24-well plate (0.1 ml per well). Each well contained 0.4 ml of ice-cold Vitrogen (3.0 mg ml^−1 collagen; Cohesion Technologies Inc., Palo Alto, USA) supplemented with 10% (vol/vol) 10× minimum essential medium, 10 mM N-[2-hydroxyethyl]piperazine-N′-[2-ethanesulphonic acid] (Hepes), 27 mM NaHCO3, 100 U ml^−1 penicillin, and 100 μg ml^−1 streptomycin, and adjusted to pH 7.4 with NaOH. The 24-well plate was gently agitated to distribute cells throughout the Vitrogen and incubated in a water bath at 37° C. for 90 minutes to promote gelation of the Vitrogen.
After gelation, 1.5 ml MDCK media containing 10% FBS was added to each well of the 24-well plate. To promote cyst growth, we added cAMP agonists (forskolin (10 μM), 3-isobutyl-1-methylxanthine (IBMX; 100 μM), and 8-(4-chlorophenylthio) adenosine 3′:5′-cyclic monophosphate (CPT-cAMP; 500 μM)) to the MDCK media. Plates were maintained at 37° C. in a humidified atmosphere of 5% CO2 and the MDCK media containing cAMP agonists changed every three days.
Twelve days after seeding collagen gels with MDCK cells, cysts were readily detected at ×1000 magnification using an inverted microscope with phase contrast optics (Leica, model DMIL, Milton Keynes, UK). To test the effect of CFTR modulators on cyst growth, drugs were added to MDCK media in the continued presence of cAMP agonists. MDCK media containing cAMP agonists and CFTR modulators was changed every 3 days for a total period of 9 days. Photographs of individual cysts were taken before the addition of CFTR modulators and at three day intervals over the duration of the experiment. To identify individual cysts, each cyst was assigned a unique reference number using a grid placed below the 24-well plate.
The diameter of cysts was measured directly from photographs of cysts using images that had been magnified by identical amounts. By assuming that cysts are spherical in shape, we calculated cyst volume ( 4/3·π·r^3).

Type I MDCK cells = assay: Proliferation of MDCK cells (cell counting); assay type: cell-based, canine
Description: as §1
To test the effect of CFTR modulators on the proliferation of MDCK cells, we used Type I MDCK cells grown in media containing 5% FBS and 1% ITS-X supplement. On day −1, MDCK cells were seeded at 7.5×10^4 cells ml^−1 in 35 mm dishes containing MDCK media with 1% FBS and 1% ITS-X supplement. On day 0, the concentration of FBS was reduced further to 0.01% and CFTR modulators added to the MDCK media. MDCK media containing CFTR modulators was changed every 2 days for a total period of 6 days. To determine the number of cells per 35 mm dish, Type I MDCK cells were harvested using trypsin (0.25% wt/vol), centrifuged at 1200 rpm for 5 min and resuspended in 1 ml of MDCK media before counting using a haemocytometer.

**Q.** Which results are given for `O=C(O)c1c(Cl)c(Cl)c(Cl)c(Cl)c1-c1c2cc(Br)c(=O)c(Br)c-2oc2c(Br)c(O)c(Br)cc12` [phloxine B]?
**A.** n (slope factor, Hill coefficient) of CFTR inhibition (wild-type human CFTR): 2; potency of CFTR inhibition compared with glibenclamide (wild-type human CFTR): potency greater than or equal to that of glibenclamide; reversibility of CFTR inhibition (wild-type human CFTR): partially reversible; effect of ATP (5 mM) on inhibition of CFTR Cl− currents (wild-type human CFTR; 20 μM): fails to relieve; pattern of channel gating (wild-type human CFTR; 20 μM): dramatically altered the pattern of channel gating; open probability (Po) (wild-type human CFTR; 20 μM, P<0.05 vs control): significantly decreased; single-channel current amplitude (i) (wild-type human CFTR; 20 μM, P<0.05 vs control): significantly decreased; channel block at positive voltages (wild-type human CFTR; 40 μM, symmetrical 147 mM Cl−): relieved; effect on CFTR Cl− currents at negative voltages (wild-type human CFTR; 40 μM, symmetrical 147 mM Cl−): decreased CFTR Cl^− currents; effect on CFTR Cl− currents (wild-type human CFTR; 1-5 μM in intracellular solution): stimulated; effect on CFTR Cl− currents (wild-type human CFTR; 20-50 μM in intracellular solution): concentration-dependent decrease; rank order of potency for CFTR inhibition (wild-type human CFTR; concentration-response, FIG. 3): bengal rose B>phloxine B>eosin Y≧tetrachlorofluorescein>>fluorescein; stimulation of CFTR channel activity (wild-type human CFTR; concentration-response, FIG. 3): stimulated channel activity; effect on activity of CFTR Cl− channels (wild-type human CFTR; in the absence of either ATP or PKA): without effect; effect on channel block by glibenclamide (50 μM) (wild-type human CFTR; phloxine B 1 μM): failed to prevent channel block; I (average CFTR Cl− current) relative to control (wild-type human CFTR; phloxine B 20 μM together with glibenclamide 50 μM): 10±2 % of the control value; I (average CFTR Cl− current) relative to control (wild-type human CFTR; phloxine B 20 μM, ATP 5 mM): 51±5 % of the control value; I (average CFTR Cl− current) relative to control (wild-type human CFTR; phloxine B 20 μM, […]): 56±6 % of the control value; I (average CFTR Cl− current) relative to control (wild-type human CFTR; phloxine B 20 μM, […], listed as Phloxine B): 59±4 % of the control value; voltage-dependence of CFTR inhibition (wild-type human CFTR; voltage ramp ±100 mV, symmetrical 147 mM Cl−, ATP 1 mM): voltage-dependent; size of cysts (phase-contrast) [1]: visible decrease in the size of cysts; inhibition of cell growth in the presence of cAMP agonists (Type I MDCK cells): unaffected by cAMP agonists; rank order of prevention of cell growth (Type I MDCK cells): ouabain (1 μM)=phloxine B (40 μM)=genistein (100 μM)=NPPB (400 μM)>glibenclamide (100 μM); cell growth (number of cells), day 0 to 6 (Type I MDCK cells; 40 μM): prevented cell growth
